Earlier results in US10292957B2, “Compositions and methods for treating fibromyalgia” (Quality IP Holdings, LLC, priority 2012, dated 2019).

Experiments:
hGH secretion = conditions: for Effect on hGH: other amino acids, literature
[1] = test system: patients with severe fibromyalgia and low insulin-like growth factor 1 levels
[2] = test system: fibromyalgia patients with low IGF-1 levels
HGH-deficient adults = conditions: within months of hGH treatment
[3] = test system: patients with fibromyalgia; conditions: 4 days treatment
[4] = test system: women with fibromyalgia and low IGF-1 levels
[5] = after subcutaneous injection of 0.06 IU, hGH deficient subjects

## N=C(N)NCCC[C@H](N)C(=O)O [arginine]
hGH secretion; 30 g, males
  Elevation of serum hGH levels: 8.6 fold
hGH secretion; intravenous infusion of 183 mg/kg body weight, females
  Increase of hGH levels: > 20 fold

## N[C@@H](Cc1c[nH]cn1)C(=O)O [histidine]
hGH secretion
  Effect on hGH: marked increases

## NCCCC[C@H](N)C(=O)O [lysine]
hGH secretion
  Effect on hGH: marked increases

## CSCC[C@H](N)C(=O)O [methionine]
hGH secretion
  Effect on hGH: marked increases

## NCCC[C@H](N)C(=O)O [ornithine]
hGH secretion
  Effect on hGH: marked increases

## N[C@@H](Cc1ccccc1)C(=O)O [phenylalanine]
hGH secretion
  Effect on hGH: marked increases

## hGH: human growth hormone, injectable
[1]; addition to the standard treatment, sustained action over time
  Pain: effective in reducing pain
[1]; low-dose add-on to standard treatment, 120 patients
  FIQ scores compared with placebo group: significantly improved
[2]; no patients discontinued due to adverse events
  Tolerability of concomitant administration with standard therapy: well tolerated
[2]; subcutaneous, added to standard therapy, one year, end of study
  Reduction in the mean number of tender points (pairs) compared to the control group: 60%
HGH-deficient adults
  Lean body mass, skin thickness and muscle mass: gains
[3]
  Plasma IGF-1 levels: increase
  Plasma IGF-BP3 levels: increase
[4]; at nine months
  FIQ score and tender point score over the placebo group: significant improvement
[4]; daily subcutaneous injections
  IGF-1 levels: prompt and sustained increase
[5]
  Mean levels of hGH reached: 0.4 ng/mL
